Measurements reported in PubChem BioAssay (NCI).
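Exposure lasted 48 hours, with cells grown in 96-well plates and compounds tested at five concentrations. TGI: concentration producing complete growth inhibition.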

Legend:
Experiment in all cases: inhibition of tumour cell growth, NCI panel, 48 h
[1] = test system: HOP-92 NSCLC
[2] = test system: U251 CNS
[3] = test system: LOX IMVI melanoma
[4] = test system: SK-MEL-2 melanoma
[5] = test system: HCT-15 colon
[6] = test system: SK-MEL-28 melanoma
[7] = test system: NCI-H226 lung
[8] = test system: COLO 205 colon
[9] = test system: CAKI-1 renal
[10] = test system: SR leukemia
[11] = test system: OVCAR-8 ovarian
[12] = test system: HCT-116 colon
[13] = test system: SNB-75 CNS
[14] = test system: PC-3 prostate
[15] = test system: OVCAR-5 ovarian
[16] = test system: A549 NSCLC
[17] = test system: UACC-62 melanoma
[18] = test system: NCI/ADR-RES ovarian
[19] = test system: MDA-MB-435
[20] = test system: MDA-N
[21] = test system: MCF7 breast
[22] = test system: ACHN renal
[23] = test system: A498 renal
[24] = test system: DU-145 prostate
[25] = test system: NCI-H522 lung
[26] = test system: NCI-H23 lung
[27] = test system: BT-549 breast
[28] = test system: KM12 colon
[29] = test system: UACC-257 melanoma
[30] = test system: SK-OV-3 ovarian
[31] = test system: T-47D breast
[32] = test system: SF-295 CNS
[33] = test system: TK-10 renal
[34] = test system: MALME-3M melanoma
[35] = test system: MOLT-4 leukemia
[36] = test system: SN12C renal
[37] = test system: 786-0 renal
[38] = test system: MDA-MB-231 breast
[39] = test system: M14 melanoma
[40] = test system: IGROV1 ovarian
[41] = test system: RPMI-8226 leukemia
[42] = test system: SNB-19 CNS
[43] = test system: CCRF-CEM leukemia
[44] = test system: HOP-62 NSCLC
[45] = test system: SW-620 colon
[46] = test system: SF-539 CNS
[47] = test system: K-562 leukemia
[48] = test system: SK-MEL-5 melanoma
[49] = test system: NCI-H460 lung
[50] = test system: HS 578T breast
[51] = test system: HL-60(TB) leukemia
[52] = test system: EKVX NSCLC
[53] = test system: OVCAR-4 ovarian
[54] = test system: SF-268 CNS
[55] = test system: UO-31 renal
[56] = test system: HT29 colon
[57] = test system: OVCAR-3 ovarian
[58] = test system: RXF 393 renal
[59] = test system: HCC-2998 colon

NS(=O)(=O)c1ccc(N=Nc2ccc[nH]c2=O)cc1
TGI [1]: > 100 µM | TGI [2]: > 100 µM | TGI [3]: > 100 µM | TGI [4]: > 100 µM | TGI [5]: > 100 µM | TGI [6]: > 100 µM | TGI [7]: > 100 µM | TGI [8]: > 100 µM | TGI [9]: > 100 µM | TGI [10]: > 100 µM | TGI [11]: > 100 µM | TGI [12]: > 100 µM | TGI [13]: > 100 µM | TGI [14]: > 100 µM | TGI [15]: > 100 µM | TGI [16]: > 100 µM | TGI [17]: > 100 µM | TGI [18]: > 100 µM | TGI [19]: > 100 µM | TGI [20]: > 100 µM | TGI [21]: > 100 µM | TGI [22]: > 100 µM | TGI [23]: > 100 µM | TGI [24]: > 100 µM | TGI [25]: > 100 µM | TGI [26]: > 100 µM | TGI [27]: > 100 µM | TGI [28]: > 100 µM | TGI [29]: > 100 µM | TGI [30]: > 100 µM | TGI [31]: > 100 µM | TGI [32]: > 100 µM | TGI [33]: > 100 µM | TGI [34]: > 100 µM | TGI [35]: > 100 µM | TGI [36]: > 100 µM | TGI [37]: > 100 µM | TGI [38]: > 100 µM | TGI [39]: > 100 µM | TGI [40]: > 100 µM | TGI [41]: > 100 µM | TGI [42]: > 100 µM | TGI [43]: 74.6 µM | TGI [44]: > 100 µM | TGI [45]: > 100 µM | TGI [46]: > 100 µM | TGI [47]: > 100 µM | TGI [48]: > 100 µM | TGI [49]: > 100 µM | TGI [50]: > 100 µM | TGI [51]: > 100 µM | TGI [52]: > 100 µM | TGI [53]: > 100 µM | TGI [54]: > 100 µM | TGI [55]: > 100 µM | TGI [56]: > 100 µM | TGI [57]: > 100 µM | TGI [58]: > 100 µM

CCOC(=O)C1=C(C)N(c2ccc(Cl)cc2)C2(O)C=CC(=O)C3=C(O)c4ccccc4C(=O)C312 (centres undefined)
TGI [1]: 8.98 µM | TGI [2]: 15.6 µM | TGI [3]: 14 µM | TGI [4]: 16.2 µM | TGI [5]: 14 µM | TGI [8]: 11.7 µM | TGI [9]: 9.21 µM | TGI [11]: 19.1 µM | TGI [12]: 11.6 µM | TGI [14]: 15.8 µM | TGI [15]: 30.7 µM | TGI [16]: 21.8 µM | TGI [17]: 9.01 µM | TGI [18]: 12.6 µM | TGI [19]: 11.3 µM | TGI [20]: 18.2 µM | TGI [21]: 8.72 µM | TGI [22]: 16.4 µM | TGI [23]: 30 µM | TGI [24]: 21.1 µM | TGI [25]: 6.45 µM | TGI [26]: 25.4 µM | TGI [27]: 28 µM | TGI [28]: 20.4 µM | TGI [29]: 42.7 µM | TGI [30]: 30.7 µM | TGI [31]: 15.8 µM | TGI [32]: 22.4 µM | TGI [33]: 8.03 µM | TGI [34]: 4.53 µM | TGI [35]: 8.65 µM | TGI [36]: 13.5 µM | TGI [37]: 4.07 µM | TGI [38]: 25 µM | TGI [39]: 12.4 µM | TGI [40]: 12.9 µM | TGI [41]: 4.42 µM | TGI [42]: 33.1 µM | TGI [43]: 6.69 µM | TGI [44]: 18.9 µM | TGI [45]: 12.7 µM | TGI [46]: 18.1 µM | TGI [47]: 18.1 µM | TGI [48]: 20.4 µM | TGI [49]: 18.2 µM | TGI [50]: 23.1 µM | TGI [51]: 5.77 µM | TGI [52]: 21.4 µM | TGI [53]: 8.33 µM | TGI [54]: 6.86 µM | TGI [55]: 15.8 µM | TGI [57]: 5.84 µM

Cc1ccc(Sc2ccccc2C23OC(C)(C4C(=O)N(c5ccccc5)C(=O)C42)N(C)C3=O)cc1 (centres undefined)
TGI [1]: > 100 µM | TGI [2]: > 100 µM | TGI [3]: > 100 µM | TGI [4]: > 100 µM | TGI [5]: > 100 µM | TGI [6]: > 100 µM | TGI [7]: > 100 µM | TGI [8]: > 100 µM | TGI [9]: > 100 µM | TGI [10]: > 100 µM | TGI [11]: > 100 µM | TGI [12]: > 100 µM | TGI [13]: > 100 µM | TGI [14]: > 100 µM | TGI [15]: > 100 µM | TGI [16]: > 100 µM | TGI [17]: > 100 µM | TGI [18]: > 100 µM | TGI [19]: > 100 µM | TGI [20]: > 100 µM | TGI [22]: > 100 µM | TGI [23]: > 100 µM | TGI [24]: > 100 µM | TGI [25]: > 100 µM | TGI [26]: > 100 µM | TGI [27]: > 100 µM | TGI [28]: > 100 µM | TGI [29]: > 100 µM | TGI [30]: > 100 µM | TGI [31]: > 100 µM | TGI [32]: > 100 µM | TGI [33]: > 100 µM | TGI [34]: > 100 µM | TGI [35]: > 100 µM | TGI [36]: > 100 µM | TGI [37]: > 100 µM | TGI [38]: > 100 µM | TGI [39]: > 100 µM | TGI [40]: > 100 µM | TGI [42]: > 100 µM | TGI [43]: > 100 µM | TGI [45]: > 100 µM | TGI [46]: > 100 µM | TGI [47]: > 100 µM | TGI [48]: > 100 µM | TGI [49]: > 100 µM | TGI [50]: > 100 µM | TGI [51]: > 100 µM | TGI [52]: > 100 µM | TGI [53]: > 100 µM | TGI [54]: > 100 µM | TGI [55]: > 100 µM | TGI [56]: > 100 µM | TGI [57]: > 100 µM | TGI [58]: > 100 µM

c1ccc(C2=NN2c2ccccc2)cc1
TGI [1]: > 100 µM | TGI [2]: > 100 µM | TGI [3]: > 100 µM | TGI [4]: > 100 µM | TGI [5]: > 100 µM | TGI [6]: > 100 µM | TGI [7]: > 100 µM | TGI [8]: > 100 µM | TGI [9]: > 100 µM | TGI [10]: > 100 µM | TGI [11]: > 100 µM | TGI [13]: > 100 µM | TGI [14]: > 100 µM | TGI [15]: > 100 µM | TGI [16]: > 100 µM | TGI [17]: > 100 µM | TGI [18]: > 100 µM | TGI [19]: > 100 µM | TGI [20]: > 100 µM | TGI [21]: > 100 µM | TGI [22]: > 100 µM | TGI [23]: > 100 µM | TGI [24]: > 100 µM | TGI [25]: > 100 µM | TGI [26]: > 100 µM | TGI [27]: > 100 µM | TGI [28]: > 100 µM | TGI [29]: > 100 µM | TGI [30]: > 100 µM | TGI [31]: > 100 µM | TGI [32]: > 100 µM | TGI [33]: > 100 µM | TGI [34]: > 100 µM | TGI [35]: > 100 µM | TGI [36]: > 100 µM | TGI [38]: > 100 µM | TGI [39]: > 100 µM | TGI [40]: > 100 µM | TGI [42]: > 100 µM | TGI [43]: > 100 µM | TGI [44]: > 100 µM | TGI [45]: > 100 µM | TGI [46]: > 100 µM | TGI [47]: > 100 µM | TGI [48]: > 100 µM | TGI [49]: > 100 µM | TGI [52]: > 100 µM | TGI [53]: > 100 µM | TGI [54]: > 100 µM | TGI [55]: > 100 µM | TGI [56]: > 100 µM | TGI [57]: > 100 µM | TGI [59]: > 100 µM | TGI [58]: > 100 µM
